Measured values as given in patent US20200190062A1, “HETEROCYCLIC COMPOUND AND PHARMACEUTICAL COMPOSITION COMPRISING SAME” (BEYONDBIO INC., priority 2015, published 2020).
Counter-ions that a name gives are not always drawn.

Experiments:
[1] = test system: Human glioblastoma U-87MG cell line; experiment: Tumor growth inhibition by combined administration in an animal model (U-87MG xenograft); details: oral daily for 30 days; for tumor growth inhibition: vs vehicle control
Method: Human glioblastoma U-87MG cell line of 5×10^6 cells/0.1 ml PBS was injected subcutaneously into the right flank of a Balb/c nude mouse. When a tumor grew to 150 mm^3, 5 mice were assigned for each group so that tumor sizes of all groups are consistent and a test compound was orally administered daily. Tumor size was measured three times a week using Caliper. […] For the combined administration, TMZ was orally administered daily for the first 5 days. For the single administration, the compound of Example 61 was orally administered daily for 30 days. For the combined administration, the compound of Example 61 was administered orally daily for 34 days. 20% propylene glycol (PG) was used as a vehicle control. Tumor size (volume) was calculated from the tumor length measured in each animal using the following Equation 1.
Tumor volume=(length of major axis×length of minor axis)/2 [Equation 1]

[2] = test system: Aβ (amyloid β protein); experiment: Inhibition of Aβ generation in B103/APP cells (Aβ42 ELISA); assay type: cell-based; details: Rattus norvegicus, 72 hrs
Method: The APP gene was inserted into B103 cells so that APP could be stably expressed and the resulting B103/APP cells were used to confirm inhibition of APP phosphorylation and Aβ generation.
Further, to confirm whether Aβ generation is reduced due to APP phosphorylation inhibition, 5×10^5 B103/APP cells were cultured in a 6-well plate for 16 hrs. Afterwards, the compounds obtained in the above Examples were added at 100 nM, 75 nM, 50 nM, 25 nM, 12.5 nM to a medium containing 500 ug/ml of G418 and 0.5% FBS and incubated for 72 hrs. After 72 hrs, the amount of Aβ was quantified using the medium by Human Aβ42 ELISA kit (Invitrogen).

Structure (SMILES)	Tumor size ([1]; 15 mpk alone) [mm^3]	tumor growth inhibition ([1]; 15 mpk alone) [%]	Tumor size ([1]; 30 mpk alone) [mm^3]	tumor growth inhibition ([1]; 30 mpk alone) [%]	inhibition at 0.0125 µM ([2]; 12.5 nM) [%]	inhibition at 0.025 µM ([2]; 25 nM) [%]	inhibition at 0.05 µM ([2]; 50 nM) [%]	inhibition at 0.075 µM ([2]; 75 nM) [%]	inhibition at 0.1 µM ([2]; 100 nM) [%]
Nc1nccc(-c2ccc(O)c(-c3ccnc(N)n3)n2)n1 [Example 61, 2,6-bis(2-aminopyrimidin-4-yl)pyridin-3-ol 3hydrochloride]	3503.3 ± 674.9	16.8	2015.0 ± 1023	52.2					
Cc1cc(-c2nc(-c3ccnc(N)c3F)ccc2O)nc(N)n1 [Example 71, 2′-amino-6-(2-amino-6-methylpyrimidin-4-yl)-3′-fluoro-[2,4′-bipyridin]-5-ol 3hydrochloride]					37.6	36.2	46.7	76.8	100
